In assay [1] the target is MthK (Methanothermobacter thermautotrophicus, UniProt O27564, V91F). Kind of assay: stopped-flow Tl+ flux assay in liposomes. The format is biochemical.
Assay [2] has as its target MthK (Methanothermobacter thermautotrophicus, UniProt O27564, A88F). Briefly: single-particle cryo-EM structure. The format is binding.
The target of assay [3] is MthK (Methanothermobacter thermautotrophicus, UniProt O27564, A90L). Kind of assay: stopped-flow Tl+ flux assay in liposomes. The format is biochemical.

From paper PMC10847966 (Nature chemical biology, 2023) come the findings set out here.

By IC50 is commonly meant the concentration needed to halve the response being measured. Higher therefore signals weaker potency in that assay. Consider `CCCCC[N+](CCCCC)(CCCCC)CCCCC` [TPeA], for which the IC50 in assay [1] was determined as 2.05 µM; in assay [3] it was 9.7 µM. For the same molecule, in assay [2], the “single-particle cryo-EM structure” value is listed as “Processing workflow for A88F-TPeA dataset, TPeA densities in the maps with C4 symmetry (mesh), TPeA molecule (stick)”.
